Data published in patent publication US20240398764A1, “METHODS OF TREATING DISEASES ASSOCIATED WITH SENESCENT CELL ACCUMULATION” (University of Florida Research Foundation, Incorporated, priority 2021, published 2024).

Columns and labels:
[1] = system: normal non-senescent REC (Non-SnC REC); experiment: Viability of Non-SnC REC; type: cell-based; details: 72 hr incubation; vs ABT263
Method: (§1) FIGS. 3A to 3B depicts viability of non-SnC human umbilical vein endothelial cells (HUVEC) and IR-induced SnC HUVEC treated with varying concentrations of ABT263 (FIG. 3A) or 753b (FIG. 3B). FIGS. 3C to 3D depict viability of non-SnC renal epithelial cells (REC), IR-induced SnC REC, and replicative senescent REC treated with varying concentrations of ABT263 (FIG. 3C) or 753b (FIG. 3D).
(§2) The viability of Non-SnC HUVEC, Non-SnC REC, IR-SnC HUVEC, IR-SnC REC, and Rep-SnC REC was measured 72 hr after they were incubated with increasing concentrations of 753b or ABT263 compared to cells/platelets with vehicle.

Bcl-2 = Bcl-2 (Homo sapiens, UniProt P10415); experiment: Immunoblot of Bcl-2 degradation in WI-38 fibroblast cells (Non-SnCs and IR-SnCs); type: cell-based; set-up: degradation of Bcl-xl and Bcl-2 in non-senescent WI-38 fibroblast cells (Non-SnCs) treated with varying concentrations of 753b; endogenous in cells; host or cells: WI-38 fibroblasts (non-senescent and ionizing-radiation-induced senescent); details: different concentrations, 16 h, dose-dependent
Excerpt: (§3) FIG. 2A depicts immunoblots showing degradation of Bcl-xl and Bcl-2 in non-senescent WI-38 fibroblast cells (Non-SnCs) treated with varying concentrations of 753b. 3-actin was used as a loading control. FIG. 2B depicts viability of Non-SnCs treated with varying concentrations of 753b or ABT263. FIG. 2C depicts immunoblots showing degradation of Bcl-xl and Bcl-2 in ionizing radiation-induced senescent WI-38 fibroblast cells (IR-SnCs) treated with varying concentrations of 753b. 3-actin was used as a loading control. FIG. 2D depicts viability of IR-SnCs treated with varying concentrations of 753b or ABT263. FIG. 2E depicts immunoblots showing degradation of Bcl-xl and Bcl-2 in human platelets treated with varying concentrations of 753b. FIG. 2F depicts viability of human platelets treated with varying concentrations of 753b or ABT263.
(§4) The potency of 753b in degrading Bcl-xl/2 was evaluated by immunoblots after the cells or platelets were treated with different concentrations of 753b for 16 h ([…]). 753b is more cytotoxic to IR-SnCs but less toxic to Non-SnCs and platelets. The viability of Non-SnCs, IR-SnCs and platelets was measured 72 hr (Non-SnCs and IR-SnCs) and 48 hr (platelets) after they were incubated with increasing concentrations of 753b or ABT263 compared to cells/platelets with vehicle.

[2] = Tumorigenesis in the STAM model (MRI); type: in vivo, C57BL6 mice; details: STZ/HFD mice; 5 mg/kg twice a week IP; postnatal day 150
Method: FIG. 10A depicts images of livers of STZ/HFD mice treated with vehicle control or 753b (top) and MRIs of T1 pre-contrast and T2-weighted images of corresponding livers (bottom). Tumor lesions are indicated by yellow arrows. […] FIG. 10C depicts a Western blot of Gpc3 in livers of STZ/HFD mice treated with vehicle control or 753b. Actin was used as a loading control.
Experimental design: C57BL6 mice were injected with Streptozotocin (STZ) at postnatal day 2 to induce diabetes and then fed with HFD from postnatal day 30 till the end of the experiments (FIG. 5). Half of the mice started receiving vehicle and the others receiving 753b (5 mg/kg) treatment on postnatal day 45 twice a week by IP injection till the end of the experiments. […]
All the analyses were done in mice at postnatal day 150 (p150 or 105 days after treatment). […] Tumor lesions were determined based on hypointense signals in T1 but hyperintense signals in T2-weighted image (FIG. 10A). Tumor number and volume was quantified based on MRI T1 and T2-weighted images. Values were expressed as means±SD from 5 mice per group. Data for each mouse were analyzed based on 5-6 slices of images that covered whole liver lobes (FIG. 10B). […] Quantification analysis was performed for the ratio between liver and body weight in the STZ/HFD treated livers that were exposed to 753b or control compound (FIG. 10D). […]

Bcl-xl [3] = biological target: T1, Bcl-xl (Homo sapiens, UniProt Q07817); experiment: Immunoblot of Bcl-xl degradation in WI-38 fibroblast cells (Non-SnCs and IR-SnCs); type: cell-based; set-up: degradation of Bcl-xl and Bcl-2 in non-senescent WI-38 fibroblast cells (Non-SnCs) treated with varying concentrations of 753b; endogenous in cells; host or cells: WI-38 fibroblasts (non-senescent and ionizing-radiation-induced senescent); details: different concentrations, 16 h, dose-dependent
Excerpt: as §3, §4

[4] = system: IR-induced senescent renal epithelial cells (IR-SnC REC); experiment: Viability of IR-SnC REC; type: cell-based; details: 72 hr incubation; vs ABT263
Method: as §1, §2

[5] = system: replicative senescent REC (Rep-SnC REC); experiment: Viability of Rep-SnC REC; type: cell-based; details: 72 hr incubation; vs ABT263
Method: as §1, §2

Bcl-xl [6] = biological target: T1, Bcl-xl; experiment: Immunoblot of Bcl-xl degradation in HEK293T cells; type: cell-based; set-up: endogenous in cells; details: different concentrations for 16 h, or 1 μM for various time points
Method: FIG. 1A depicts immunoblots showing degradation of Bcl-xl and Bcl-2 in HEK293T cells treated with various concentrations of 753b for 16 hours. FIG. 1B depicts immunoblots showing degradation of Bcl-xl and Bcl-2 in HEK293T cells treated with 1 μM 753b for various durations. 3-actin was used as a loading control.
The potency of 753b in degrading Bcl-xl/2 was evaluated in 293T cells by immunoblots after the cells were treated with different concentrations of 753b for 16 h (FIG. 1A) or after the cells were treated with 1 μM 753b for various time points as indicated (FIG. 1B). Representative immunoblots are shown, and β-actin was used as a loading control.

[7] = IR-induced senescent WI-38 fibroblast cells
[8] = non-senescent WI-38 fibroblast cells

T1 sequence (Q07817 whole entry): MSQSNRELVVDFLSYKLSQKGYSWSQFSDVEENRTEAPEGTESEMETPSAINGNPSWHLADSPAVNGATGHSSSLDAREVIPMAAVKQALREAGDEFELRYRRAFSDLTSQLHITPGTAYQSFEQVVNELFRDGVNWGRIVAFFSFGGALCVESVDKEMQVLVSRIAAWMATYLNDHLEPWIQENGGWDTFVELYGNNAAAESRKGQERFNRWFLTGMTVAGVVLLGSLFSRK
Chain of Bcl-2 (P10415 whole entry): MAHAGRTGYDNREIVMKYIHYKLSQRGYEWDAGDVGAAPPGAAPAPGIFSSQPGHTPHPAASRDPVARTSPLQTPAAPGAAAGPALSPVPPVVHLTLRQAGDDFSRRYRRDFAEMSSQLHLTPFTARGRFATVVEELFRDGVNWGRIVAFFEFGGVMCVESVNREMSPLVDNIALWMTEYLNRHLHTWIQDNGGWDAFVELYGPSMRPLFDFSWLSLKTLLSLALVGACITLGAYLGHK

## Cc1ncsc1-c1ccc([C@H](C)NC(=O)[C@@H]2C[C@@H](O)CN2C(=O)[C@@H](NC(=O)CCCCCCC(=O)N2CCN(C[C@]3(C)CCC(c4ccc(Cl)cc4)=C(CN4CCN(c5ccc(C(=O)NS(=O)(=O)c6ccc(N[C@H](CCN7CCOCC7)CSc7ccccc7)c(S(=O)(=O)C(F)(F)F)c6)cc5)CC4)C3)CC2)C(C)(C)C)cc1 [Compound 753b]
[1]
  Toxicity (viability) to Non-SnC REC compared with ABT263: less toxic
Bcl-2; [7]
  Bcl-2 degradation in IR-SnCs: degrades Bcl-xl and Bcl-2 in Non-SnCs and IR-SnCs
Bcl-2; [8]
  Bcl-2 degradation in Non-SnCs: degrades Bcl-xl and Bcl-2 in Non-SnCs and IR-SnCs
[2]
  Tumorigenesis in the liver: reduces tumorigenesis
Bcl-xl [3]; [7]
  Bcl-xl degradation in IR-SnCs: degrades Bcl-xl and Bcl-2 in Non-SnCs and IR-SnCs
Bcl-xl [3]; [8]
  Bcl-xl degradation in Non-SnCs: degrades Bcl-xl and Bcl-2 in Non-SnCs and IR-SnCs
[4]
  Senolytic potency (viability) against IR-SnC REC compared with ABT263: more potent senolytic agent
[5]
  Senolytic potency (viability) against Rep-SnC REC compared with ABT263: more potent senolytic agent
Bcl-xl [6]
  Bcl-xl degradation: degrades Bcl-xl and Bcl-2 in a dose- and time-dependent manner
